Values of other authors as cited in patent US10813571B2, “Devices and methods for non-invasive monitoring of substance in a body” (TATA C[…] LIMITED, priority 2015, dated 2020).

Conditions: in the user's (smoker's) body; as known in the art

CN1CCCC1c1cccnc1 (stereo not shown) [nicotine]
half-life of nicotine in the body (t1/2): 1 to 2 h
